Tests used:
[1] = target: T1, uPAR (uPA binding site) (Homo sapiens, UniProt Q03405); test: Competitive ELISA uPAR binding assay (immobilized urokinase)
T1 construct: purchased R&D systems
Method: The affinity of ARM-U2 derivatives differing in both the length of the DNP-linker substituted at position 2 of ring C and the display of negative charge density (FIG. 8, Table 1) for uPAR were assayed using a competitive ELISA binding assay. The assay involves the immobilization of urokinase, a natural high affinity ligand for uPAR followed by the addition of a fixed concentration of recombinant uPAR protein and increasing concentrations of ARM-U2 which competes with urokinase for binding to the uPA binding site of uPAR. Following several washing steps, the amount of uPAR bound is quantified by a biotinylated anti-uPAR antibody and avidin-HRP and can be fit to a competitive binding model allowing for the extraction of the uPAR/ARM-U2 Kd.
All ARM-U2 derivatives were assessed for their ability to bind selectively to recombinant uPAR in vitro using a competitive ELISA binding assay. DMSO stock solutions of each ARM-U2 derivative stored at −20° C. were titrated into wells pre-coated with human urokinase (isolated from human urine, ProSpec 1 mg/ml deI water 18.5 μM) in the presence of uPAR. Selective binding to uPAR by ARM-U2 at the uPA binding site competes with uPAR-uPA binding which is required for a positive UV 450 nm absorbance signal. Increasing concentrations of ARM-U2 displace increasing amounts of uPAR from uPA which is detected by anti-uPAR/biotin labeled antibodies followed by avidin-HRP. The sigmoidal binding isotherm of absorbance at 450 nm vs log ARM-U2 concentration can then by fit by non-linear regression analysis to obtain the IC50 for ARM-U2/uPAR binding (Equation S2) which can then be translated into a KI for ARM-U2/uPAR binding using a competitive binding model adapted from the Cheng-Prusoff equation relating KI to IC50 (Equation S3). The ELISA experiments were performed as followed: To Corning high binding 96 well flat bottom plates was added 100 μl/well of 100 nM urokinase in sterile PBS. The plates were sealed and left to incubate at 4° C. overnight. The plates were then washed 1× with 200 μl wash buffer (PBS+0.05% Tween-20) and 1× with 400 μl wash buffer. The plates were blotted on paper towel and blocked for 1 h shaking at room temp with 300 μl of a solution of thermo superblock in PBS per well. Molecule dilutions into solutions of a fixed concentration (10 nM) of uPAR were prepared in 0.025% triton-X/PBS on a separate low binding plate during the blocking hour. The plates were again washed followed by the addition of 100 μl of the ARM-U2/uPAR solution with 0.1% final DMSO concentration. The solutions were mixed by multichannel pipette, sealed, and incubated for 2 h with shaking at room temperature. The plates were then washed 1× with 200 μl wash buffer (PBS+0.05% Tween-20) and 2× with 400 μl wash buffer. The plates were blotted on a paper towel followed by the addition of 100 μl/well of a solution of biotinylated anti-uPAR antibody in 1% BSA/PBS. (R&D Systems, 3.3 μl taken from 50 μg/250 μl-1000× stock) and incubation with shaking for 1 h at room temp. The plates were washed 1× with 200 μl wash buffer and 2× with 400 μl wash buffer and blotted on a paper towel. 100 μl of avidin-HRP (stock −500× from e-bioscience) were added per well, incubated 20 min with shaking at room temp followed by washing 1× with 200 μl wash buffer and 3× with 400 μl wash buffer. The plates were blotted dry with paper towel and 100 μl of TMB substrate was added to each well. The emergence of blue color was monitored and the reaction quenched with the addition of 50 μl of 2M sulfuric acid to each well followed by measuring the absorbance at 450 nm using a fluorescence plate reader. […]

[2] = tested on: A172 glioblastoma cells; test: Antibody-dependent cellular phagocytosis (ADCP) of A172 cells by U937 cells; assay type: cell-based, human; details: U937 effector cells, anti-DNP antibodies
Method: ADCP experiments carried out via a dual channel flow cytometry assay and were performed by measuring the % phagocytosis of A172 human glioblastoma cells by IFN-gamma primed U937 macrophage effector cells each stained with FL-1 and FL-4 dyes respectively giving rise to double positive FL-1 and FL-4 fluorescence shifts accompanying phagocytosis. These assays were performed in the presence and absence of exogenously added anti-DNP antibodies and various concentrations of each ARM-U2 derivative. Control experiments were also performed to confirm that cellular phagocytosis is occurring and is dependent on ARM-U2 binding cell surface uPAR by • 1. Performing out competitions with exogenous uPAR, • 2. Performing out-competitions with 6-ABT-4 which should bind uPAR but not anti-DNP antibodies • 3. Performing ADCP at 4 degrees Celsius where phagocytosis cannot occur and • 4. Amnis microscopic analysis of double positives identified in the ADCP assay to undergo 6-ABT-1 dependent phagocytosis.
IFNγ-primed U937 cells were stained with DiD dye (final concentration 1.9 μM) for 30 min at 37° C. A172 target cells were prepared by staining adherent cells with DiO dye (Invitrogen; final concentration 1.9 μM), and then nonenzymatically detaching the cells with 0.5 mM EDTA and EGTA. Cells were counted with trypan blue staining to verify cell viability. To measure phagocytosis, 2.5×10^4 target cells were suspended in 25 ul phenol-free low-IgG RPMI media to which 25 ul of 100 nM anti-DNP antibody (rabbit polyclonal KLH IgG, Invitrogen-100× stock) containing media was added followed by the addition of 1 ul of ARM-U2 from 100×DMSO stocks or 6-ABT-4 from 100×DMSO stocks for compound out-competition experiments, followed by the addition of 50 ul of 10^5 U937 cells in the same RPMI Assay Media resulting in a final volume of 100 uL. This experimental setup yielded an effector-to-target ratio (E:T ratios) of 4:1. For out-competition studies with exogenous uPAR, 250 ul of A-172 target cells in assay media was added directly to lyophilized 100 ug uPAR (R@D systems) to yield an 8.4 uM stock uPAR concentration, this was then combined in the manner and order described above. Eppendorfs were centrifuged at 200 rcf for 2 min then incubated at 37° C. for 1 hour or at 4° C. for 1 hr in controls establishing real phagocytosis is indeed represented by double positives in flow cytometry. Phagocytosis was halted by placing tubes on ice. […] The live cell population selected was further gated into four quadrants using dual FL-1 and FL-4 fluorescence enabling for the differentiation of effector only cells (top left quadrant-high FL-4), target only cells (bottom right quadrant-high FL-1 fluorescence), and double positive overlapping target and effector cells (top right quadrant-high FL-1 and FL-4 fluorescence). […]

[3] = tested on: B16 melanoma tumors expressing human uPAR; test: B16 mouse melanoma allograft model expressing human uPAR; assay type: in vivo
Excerpt: The inventors also examined the efficacy of ARM-U2 in a B16−uPAR mouse allograft model developed in our laboratory. Mice immunized to produce anti-DNP IgG antibodies containing tumors expressing human uPAR, received daily treatment via intraperitoneal (IP) injection and were monitored over the course of 42 days.

T1 sequence (Q03405 23-305): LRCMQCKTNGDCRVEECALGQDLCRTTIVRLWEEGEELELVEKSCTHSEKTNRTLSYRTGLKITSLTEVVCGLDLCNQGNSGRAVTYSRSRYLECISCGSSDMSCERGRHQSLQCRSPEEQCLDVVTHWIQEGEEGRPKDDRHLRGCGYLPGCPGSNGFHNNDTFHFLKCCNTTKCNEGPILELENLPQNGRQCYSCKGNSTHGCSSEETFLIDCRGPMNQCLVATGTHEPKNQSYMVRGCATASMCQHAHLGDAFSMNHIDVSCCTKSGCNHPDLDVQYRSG

Question: What does the source list for `O=C(O)c1cc(Nc2cc(N3CCC[C@H](C(=O)NCCCOCCOCCOCCCNc4ccc([N+](=O)[O-])cc4[N+](=O)[O-])C3)c3noc4c3c2C(=O)c2ccccc2-4)cc(C(=O)O)c1` [2-ABT-1]?
Answer: uPAR-binding affinity relative to parent ARM-U2 derivative 1-ABT-1 [1]: no increase in uPAR-binding affinity; ADCP efficacy and potency compared to 1-ABT-1 [2]: no increase in efficacy or potency in ADCP

Question: How did the “uPAR-binding affinity relative to parent ARM-U2 derivative 1-ABT-1” value [1] turn out when `O=C(O)CNC(=O)c1cccc(Nc2cc(N3CCC[C@H](C(=O)NCCCOCCOCCOCCCNc4ccc([N+](=O)[O-])cc4[N+](=O)[O-])C3)c3noc4c3c2C(=O)c2ccccc2-4)c1` [3-ABT-1] was run?
Answer: Its value is “modest increase in affinity”.

Question: What about the “ADCP efficacy and potency compared to 1-ABT-1” value [2] of the same compound?
Answer: The value was “no increase in efficacy or potency in ADCP”.

Question: With `O=C(O)CNc1cccc(Nc2cc(N3CCC[C@H](C(=O)NCCCOCCOCCOCCCNc4ccc([N+](=O)[O-])cc4[N+](=O)[O-])C3)c3noc4c3c2C(=O)c2ccccc2-4)c1` [4-ABT-1] as the compound, how does the “uPAR-binding affinity relative to parent ARM-U2 derivative 1-ABT-1” value [1] read?
Answer: Its value is “modest increase in affinity”.

Question: What about the “ADCP efficacy and potency compared to 1-ABT-1” value [2] of the same compound?
Answer: Its value is “no increase in efficacy or potency in ADCP”.

Question: `O=C1c2ccccc2-c2onc3c(N4CCC[C@H](C(=O)NCCCOCCOCCOCCCNc5ccc([N+](=O)[O-])cc5[N+](=O)[O-])C4)cc(Nc4cccc(S(=O)(=O)O)c4)c1c23` [5-ABT-1] was tested. Which “uPAR-binding affinity relative to parent ARM-U2 derivative 1-ABT-1” value [1] did it give?
Answer: Its value is “no increase in uPAR-binding affinity”.

Question: And the “ADCP efficacy and potency compared to 1-ABT-1” value [2]?
Answer: The value was “no increase in % phagocytosis”.

Question: Which results are given for `Nc1c(N2CCCC(C(=O)NCCCOCCOCCOCCCNc3ccc([N+](=O)[O-])cc3[N+](=O)[O-])C2)cc(Nc2ccc(S(=O)(=O)O)cc2S(=O)(=O)O)c2c1C(=O)c1ccccc1C2=O` (centres unmarked) [compound 23]?
Answer: Ki ([1]; calculated from the ELISA IC50): 10 nM; IC50 ([1]; competition with immobilized uPA for uPAR): 63 nM

Question: What does the source list for `COc1cccc2c1C(=O)c1c(O)c3c(c(O)c1C2=O)C[C@@](O)(C(=O)CO)C[C@@H]3O[C@H]1C[C@H](N)[C@H](O)[C@H](C)O1` [doxorubicin]?
Answer: average tumor volume after 17 days ([3]; IP injections over 17 days): approximately 200 mm^3; mean survival ([3]; daily IP treatment): 27 days; tumor growth inhibition (TGI) ([3]; daily IP, ARM-U2 20 mpk or 100 mpk, Dox 1 mpk, vs PBS): comparable; persistence of tumor regression after treatment cessation ([3]; mouse, in vivo): ~14 days

Source: patent publication US10633374B2, “Small molecule based antibody-recruiting compounds for cancer treatment” (YALE UNIVERSITY, priority 2015, dated 2020)
